Measured values taken from US20050020544A1, “Bicyclic CB2 cannabinoid receptor ligands” (priority 2002, published 2005).

Experiments:
Male Sprague Dawley rats = test: Effect on the cardiovascular system (MABP, heart rate); assay type: in vivo, rat
Procedure: The purpose of this study was to assess the safety of the test compounds in male Sprague Dawley rats (270-350 g, Harlan, Israel). The test compounds were dissolved in vehicle, diluted 1:20 in sterile saline and injected either i.v. or i.p. at doses ranging from 0.1 to 2 mg/kg for i.v. administration or 10 to 40 mg/kg for i.p. administration, in volumes of 0.5 ml/100 g body weight. Each treatment group was composed of at least 6 animals. A cannula (PE 50, Clay Adams, USA) was implanted into the femoral artery under halothane anesthesia (induction 4% and maintenance 1%)). The vein was cannulated for drug administration. The arterial cannula was attached to a pressure transducer (Ohmeda DT-XX USA). The transducer was connected to a data acquisition system (Biopac, USA). Recordings of the heart rate (HR), mean arterial blood pressure (MABP) and electrocardiogram (ECG lead 2) were taken for 20 minutes before treatment, for the establishment of a stable baseline, up to 60 minutes following injections of the test compounds. Animals were also connected to a temperature recorder through a rectal thermistor probe (YSI Model 400, USA) and rectal temperature was monitored along the duration of the study.
Differences between vehicle and treatments are compared by one-way ANOVA, followed by post-hoc Newman-Keuls tests (Prism software from Graphpad, San Diego).

Male ICR mice = test: Psychomimetic effects: open field locomotor activity and rectal temperature; assay type: in vivo, mouse; settings: for hypothermia (rectal body temperature): i.v., end of open-field examination
Procedure: Male ICR mice (25 g average body weight, Harlan, Israel) are used for a series of tests for psychotropic effects, specifically locomotor activity and rectal temperature. […] Naïve mice were used as control. Each treatment group is composed of at least 6 animals.
Animals were placed in an open field (60×50 cm) 5 minutes after i.v. administration of the treatment or 30 minutes after i.p. injection. Their locomotor activity was recorded using a video based computer system (ViewPoint, France). The following parameters were recorded for 3 minutes: the total distance, the time and the speed traveled by the animals. An additional parameter, rectal body temperature, was monitored at the end of the open-field examination using a thermostat thermometer (Cole Parker Model 8402-00) and a thermostat probe (YSI 400 Model 402).
Results are expressed as mean±SE and the differences between vehicle and treatments are compared by ANOVA, followed by post-hoc Tukey's test.

ICR male mice = test: Tail flick model for acute peripheral pain, i.p.; assay type: in vivo, mouse
Procedure, shortened: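 Male ICR mice (≥6/group) dosed i.p. at 0.1–10 mg/kg in Cremophor EL:ethanol diluted 1:20 in saline; morphine HCl 5 mg/kg as positive control. Tail illuminated 2 cm from tip at set times post-dose; latency (s) recorded in duplicate. Read-outs: latency and % animals showing analgesia, mean±SE; ANOVA/Tukey or Fisher's exact test, p<0.05.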

Female Balb/c mice = test system: Female Balb/c mice; design: maximal reduction in paw edema: dose or concentration left out as unconfirmed; settings: for maximal reduction in paw thickness (MOE) / dose at which the maximal effect was observed: i.p.; for maximal reduction in paw thickness (MOE): 3 hours after carrageenan, at the dose of maximal effect; for dose at which the maximal effect was observed: paw thickness
Procedure: The purpose of this study is to test in vivo the anti-inflammatory activity of the compounds in paw edema induced by injection of 1% carrageenan in the animal hind paw. Female Balb/c mice (20 g average body weight, Harlan, Israel) are anesthetized with a combination of xylazine and pentobarbitone diluted in sterile saline, 15 and 6 mg/kg i.p. respectively. Anesthetized mice are injected subcutaneously, in the subplantar region of one (right) paw with 0.05 ml of 1% w/v Carrageenan in sterile water. […] The test compounds, including known anti-inflammatory controls, are dissolved in CREMOPHOR EL®:ethanol and further diluted 1:20 or 1:50 in sterile saline prior to i.p. injection that takes place immediately before the carrageenan injection. Three hours after injection the animals are resedated following the previously described procedure. Paw thickness is measured using a dial thickness gauge (Spring-dial, constant low pressure gauge, Mitutoyo, TG/L-1, 0.01 mm) and paw volume is measured using a plethysmometer (model #7150, Ugo Basile, Italy). Paw Edema is expressed as the difference between the right treated and the left untreated paws of the same animal, either as Δ Paw Volume (ΔPV) in millimeters cube or as Δ Paw Thickness (ΔPT) in millimeters. Each group comprises at least 10 animals. […] At the end of the study, animals are euthanized with an i.p. injection of 100 mg/kg pentobarbitone.
The differences among various treatment groups are analyzed by analysis of variance (ANOVA) followed by post-hoc Fisher test. A value of p<0.05 is considered to be statistically significant.
For sake of comparison, known anti-inflammatory drugs such as Celecoxib and Dexamethasone yield respectively in the range of relevant doses 7% and 26% reduction in paw thickness at 0.1 mg/kg, 16% and 31% at 0.25 mg/kg and 24% and 33% at 0.5 mg/kg. […] It should be kept in mind that these commercially available drugs display serious side effects that prevent chronic uses without complementary protective medication.

[1] = 10 mg/kg i.p., 330 minutes (five and a half hours)
[2] = 20 mg/kg i.p., one hour follow-up

CCCCCCC(C)(C)c1cc(O)c([C@H]2CC(=O)[C@H]3C[C@@H]2C3(C)C)c(OC(=O)CCC(=O)O)c1 [Compound R, (−)-4-{4-[1,1-Dimethyl-heptyl]-2-succinate-6-hydroxy-phenyl}-6,6-dimethyl-bicyclo[3.1.1]heptan-2-one]
amplitude of HR fluctuations (Male Sprague Dawley rats; 40 mg/kg i.p.): 10%
average drop in HR (Male Sprague Dawley rats; 40 mg/kg i.p.): about 4 beats per minute
reduction in MABP (Male Sprague Dawley rats; i.p., 40 mg/kg): ≤ 36 mmHg
total distance covered (Male ICR mice; 1, 2, 3, 4, 5 and 6 mg/kg i.v., 3 minutes open field): fluctuations in total distance covered and again this phenomenon had no statistical significance
hypothermia (rectal body temperature) (Male ICR mice): about 2 °C
% animals showing analgesia (ICR male mice; 10 mg/kg i.p., 90 minutes): 100%
latency time (ICR male mice; 10 mg/kg i.p., 90 minutes): 8.5 s
% animals showing increased analgesia (ICR male mice; [1]): 100%
latency time (ICR male mice; [1]): 6.8 s
% animals with increased resistance to pain (ICR male mice; 10 mg/kg i.p., all along the duration of the study (5.5 hours)): 100%
analgesia compared with 5 mg/kg morphine (ICR male mice; 4 and 8 mg/kg i.p.): still twice better than 5 mg/kg morphine in generating analgesia
maximal reduction in paw edema (Female Balb/c mice; formulated in cosolvent): 31%
maximal reduction in paw thickness (MOE) (Female Balb/c mice): 31%
dose at which the maximal effect was observed (Female Balb/c mice): 0.5 mg/kg
therapeutic index (Female Balb/c mice; paw edema, 0.5 mg/kg versus tolerated 40 mg/kg): at least 80

CCCCC(C)(C)c1cc(O)c(C2CC(=O)C3CC2C3(C)C)c(O)c1 (single isomer, unassigned; (-)) [Compound L, (−)-4-[4(1,1-Dimethyl-pentyl)-2,6-dihydroxy-phenyl]-6,6-dimethyl-bicyclo[3.1.1]heptan-2-one]
maximal reduction in paw thickness (MOE) (Female Balb/c mice): 34%
dose at which the maximal effect was observed (Female Balb/c mice): 0.25 mg/kg

CCCCCCC(C)(C)c1cc(O)c(C2CC(=O)C3CC2C3(C)C)c(O)c1 (single isomer, unassigned; (-)) [Compound A, (−)-4-[4-(1,1-Dimethyl-heptyl)2,6-dihydroxy-phenyl]-6,6-dimethyl-bicyclo[3.1.1)heptan-2-one]
effect on heart rate (Male Sprague Dawley rats; 0.1 mg/kg i.v.): minor insignificant and transient decline in HR
decrease in MABP (Male Sprague Dawley rats; 0.1 mg/kg i.v., 5 minutes post injection): 4 mmHg
time for MABP back to baseline range (Male Sprague Dawley rats; 0.5 mg/kg i.v.): 30 min
decrease in MABP (Male Sprague Dawley rats; 0.5 mg/kg i.v., 5 minutes): about 25 mmHg
time for MABP back to baseline range (Male Sprague Dawley rats; 1 mg/kg i.v.): 45 min
decrease in MABP (Male Sprague Dawley rats; 1 mg/kg i.v., 5 minutes): about 30 mmHg
drop in HR (Male Sprague Dawley rats; [2]): about 17 beats per minute
drop in HR from baseline (Male Sprague Dawley rats; [2]): 5%
maximal drop in HR (Male Sprague Dawley rats; higher doses i.v.): about 80 beats per minute
hypotension (decrease in MABP) (Male Sprague Dawley rats; i.p., up to 30 mg/kg): ≤ 15 mmHg
hypothermia (rectal body temperature) (Male ICR mice): about 2 °C
latency time (ICR male mice; 4 mg/kg i.p., thirty minutes): 4.9 s
% animals showing analgesia (ICR male mice; 10 mg/kg i.p., 90 minutes): more than 80%
latency time (ICR male mice; 10 mg/kg i.p., 90 minutes): 7.3 s
% animals showing increased analgesia (ICR male mice; [1]): 80%
latency time (ICR male mice; [1]): 4.9 s
% animals showing increased analgesia (ICR male mice; 10 mg/kg i.p., initiation of the study): 100%
analgesia (ICR male mice; 8 and 10 mg/kg i.p., 330 minutes): Significant analgesia was still evident
maximal latency (ICR male mice; maximal tested dose 10 mg/kg i.p., 30 minutes): 7.1 s
maximal reduction in paw thickness (MOE) (Female Balb/c mice): 28%
dose at which the maximal effect was observed (Female Balb/c mice): 2.5 mg/kg

CCCCCCC(C)(C)c1cc(OC)c(C2C=C(CO)C3CC2C3(C)C)c(OC)c1 (single isomer, unassigned; (+)) [HU-308, (+) {4-[4-(1,1-dimethylheptyl)-2,6-dimethoxy-phenyl]-6,6-dimethyl-bicyclo[3.1.1]hept-2-en-2-yl}-methanol, reference compound]
maximal reduction in paw thickness (MOE) (Female Balb/c mice): about 28%
dose at which the maximal effect was observed (Female Balb/c mice): 0.6 mg/kg
